Assay: In vivo biodistribution of radiolabelled compounds in rats
Source text: In vivo biodistribution of radiolabelled compounds of the invention indicated high uptake in the tissues which have known PBR sites. Tables 2 to 4 show the biodistribution of the compounds of Examples 1-3, in which the iodine atom is radiolabelled, when administered to rats.

SMILES: CCN(CC)C(=O)Cc1c(-c2ccc([123I])cc2)nc2ccc(Cl)cn12 [^123-I Example 3]
- Biodistribution (% ID/g organ) Adrenals (5 Min): 2.11 ± 0.12 % ID/g organ
- Biodistribution (% ID/g organ) Adrenals (15 Min): 2.03 ± 0.8 % ID/g organ
- Biodistribution (% ID/g organ) Adrenals (24 Hrs): 4.56 ± 0.74 % ID/g organ
- Biodistribution (% ID/g organ) Adrenals (30 Min): 2.42 ± 0.36 % ID/g organ
- Biodistribution (% ID/g organ) Adrenals (48 Hrs): 4.87 ± 0.55 % ID/g organ
- Biodistribution (% ID/g organ) Adrenals (60 Min): 2.83 ± 0.41 % ID/g organ
- Biodistribution (% ID/g organ) Adrenals (180 Min): 4.1 ± 0.80 % ID/g organ
- Biodistribution (% ID/g organ) Adrenals (240 Min): 4.32 ± 0.60 % ID/g organ
- Biodistribution (% ID/g organ) Adrenals (360 Min): 5.28 ± 0.95 % ID/g organ
- Biodistribution (% ID/g organ) Adrenals (480 Min): 4.22 ± 0.12 % ID/g organ
- Biodistribution (% ID/g organ) Blood (5 Min): 0.46 ± 0.08 % ID/g organ
- Biodistribution (% ID/g organ) Blood (15 Min): 0.16 ± 0.02 % ID/g organ
- Biodistribution (% ID/g organ) Blood (24 Hrs): 0.02 ± 0.001 % ID/g organ
- Biodistribution (% ID/g organ) Blood (30 Min): 0.12 ± 0.03 % ID/g organ
- Biodistribution (% ID/g organ) Blood (48 Hrs): 0.01 ± 0.001 % ID/g organ
- Biodistribution (% ID/g organ) Blood (60 Min): 0.06 ± 0.02 % ID/g organ
- Biodistribution (% ID/g organ) Blood (180 Min): 0.04 ± 0.001 % ID/g organ
- Biodistribution (% ID/g organ) Blood (240 Min): 0.05 ± 0.001 % ID/g organ
- Biodistribution (% ID/g organ) Blood (360 Min): 0.04 ± 0.001 % ID/g organ
- Biodistribution (% ID/g organ) Blood (480 Min): 0.03 ± 0.001 % ID/g organ
- Biodistribution (% ID/g organ) Brain (5 Min): 0.33 ± 0.04 % ID/g organ
- Biodistribution (% ID/g organ) Brain (15 Min): 0.2 ± 0.02 % ID/g organ
- Biodistribution (% ID/g organ) Brain (24 Hrs): 0.01 ± 0.001 % ID/g organ
- Biodistribution (% ID/g organ) Brain (30 Min): 0.15 ± 0.01 % ID/g organ
- Biodistribution (% ID/g organ) Brain (48 Hrs): 0.01 ± 0.001 % ID/g organ
- Biodistribution (% ID/g organ) Brain (60 Min): 0.08 ± 0.02 % ID/g organ
- Biodistribution (% ID/g organ) Brain (180 Min): 0.05 ± 0.001 % ID/g organ
- Biodistribution (% ID/g organ) Brain (240 Min): 0.05 ± 0.01 % ID/g organ
- Biodistribution (% ID/g organ) Brain (360 Min): 0.05 ± 0.02 % ID/g organ
- Biodistribution (% ID/g organ) Brain (480 Min): 0.03 ± 0.001 % ID/g organ
- Biodistribution (% ID/g organ) Heart (5 Min): 2.63 ± 0.30 % ID/g organ
- Biodistribution (% ID/g organ) Heart (15 Min): 2.39 ± 035 % ID/g organ
- Biodistribution (% ID/g organ) Heart (24 Hrs): 0.39 ± 0.03 % ID/g organ
- Biodistribution (% ID/g organ) Heart (30 Min): 2.44 ± 0.28 % ID/g organ
- Biodistribution (% ID/g organ) Heart (48 Hrs): 0.17 ± 0.002 % ID/g organ
- Biodistribution (% ID/g organ) Heart (60 Min): 2.65 ± 0.63 % ID/g organ
- Biodistribution (% ID/g organ) Heart (180 Min): 2.59 ± 0.16 % ID/g organ
- Biodistribution (% ID/g organ) Heart (240 Min): 2.49 ± 0.22 % ID/g organ
- Biodistribution (% ID/g organ) Heart (360 Min): 2.13 ± 0.45 % ID/g organ
- Biodistribution (% ID/g organ) Heart (480 Min): 1.48 ± 0.12 % ID/g organ
- Biodistribution (% ID/g organ) Kidney (5 Min): 1.73 ± 0.38 % ID/g organ
- Biodistribution (% ID/g organ) Kidney (15 Min): 2.11 ± 0.31 % ID/g organ
- Biodistribution (% ID/g organ) Kidney (24 Hrs): 0.25 ± 0.03 % ID/g organ
- Biodistribution (% ID/g organ) Kidney (30 Min): 2.31 ± 0.02 % ID/g organ
- Biodistribution (% ID/g organ) Kidney (48 Hrs): 0.12 ± 0.01 % ID/g organ
- Biodistribution (% ID/g organ) Kidney (60 Min): 1.87 ± 0.66 % ID/g organ
- Biodistribution (% ID/g organ) Kidney (180 Min): 1.71 ± 0.17 % ID/g organ
- Biodistribution (% ID/g organ) Kidney (240 Min): 1.37 ± 0.18 % ID/g organ
- Biodistribution (% ID/g organ) Kidney (360 Min): 1.43 ± 0.25 % ID/g organ
- Biodistribution (% ID/g organ) Kidney (480 Min): 0.87 ± 0.15 % ID/g organ
- Biodistribution (% ID/g organ) Liver (5 Min): 0.87 ± 0.13 % ID/g organ
- Biodistribution (% ID/g organ) Liver (15 Min): 0.93 ± 0.06 % ID/g organ
- Biodistribution (% ID/g organ) Liver (24 Hrs): 0.06 ± 0.001 % ID/g organ
- Biodistribution (% ID/g organ) Liver (30 Min): 0.76 ± 0.01 % ID/g organ
- Biodistribution (% ID/g organ) Liver (48 Hrs): 0.04 ± 0.001 % ID/g organ
- Biodistribution (% ID/g organ) Liver (60 Min): 0.41 ± 0.14 % ID/g organ
- Biodistribution (% ID/g organ) Liver (180 Min): 0.28 ± 0.02 % ID/g organ
- Biodistribution (% ID/g organ) Liver (240 Min): 0.23 ± 0.03 % ID/g organ
- Biodistribution (% ID/g organ) Liver (360 Min): 0.23 ± 0.02 % ID/g organ
- Biodistribution (% ID/g organ) Liver (480 Min): 0.16 ± 0.01 % ID/g organ
- Biodistribution (% ID/g organ) Lungs (5 Min): 13.16 ± 1.24 % ID/g organ
- Biodistribution (% ID/g organ) Lungs (15 Min): 6.98 ± 1.87 % ID/g organ
- Biodistribution (% ID/g organ) Lungs (24 Hrs): 0.31 ± 0.06 % ID/g organ
- Biodistribution (% ID/g organ) Lungs (30 Min): 4.91 ± 0.22 % ID/g organ
- Biodistribution (% ID/g organ) Lungs (48 Hrs): 0.17 ± 0.02 % ID/g organ
- Biodistribution (% ID/g organ) Lungs (60 Min): 2.76 ± 0.80 % ID/g organ
- Biodistribution (% ID/g organ) Lungs (180 Min): 1.63 ± 0.07 % ID/g organ
- Biodistribution (% ID/g organ) Lungs (240 Min): 1.38 ± 0.09 % ID/g organ
- Biodistribution (% ID/g organ) Lungs (360 Min): 1.21 ± 0.27 % ID/g organ
- Biodistribution (% ID/g organ) Lungs (480 Min): 0.75 ± 0.07 % ID/g organ
- Biodistribution (% ID/g organ) Olfactive bulbs (5 Min): 0.44 ± 0.08 % ID/g organ
- Biodistribution (% ID/g organ) Olfactive bulbs (15 Min): 0.31 ± 0.03 % ID/g organ
- Biodistribution (% ID/g organ) Olfactive bulbs (24 Hrs): 0.09 ± 0.001 % ID/g organ
- Biodistribution (% ID/g organ) Olfactive bulbs (30 Min): 0.26 ± 0.03 % ID/g organ
- Biodistribution (% ID/g organ) Olfactive bulbs (48 Hrs): 0.07 ± 0.001 % ID/g organ
- Biodistribution (% ID/g organ) Olfactive bulbs (60 Min): 0.2 ± 0.07 % ID/g organ
- Biodistribution (% ID/g organ) Olfactive bulbs (180 Min): 0.16 ± 0.02 % ID/g organ
- Biodistribution (% ID/g organ) Olfactive bulbs (240 Min): 0.18 ± 0.03 % ID/g organ
- Biodistribution (% ID/g organ) Olfactive bulbs (360 Min): 0.16 ± 0.04 % ID/g organ
- Biodistribution (% ID/g organ) Olfactive bulbs (480 Min): 0.16 ± 0.03 % ID/g organ
